Measurements reported in article PMC9851200, “Multiparameter phenotypic screening for endogenous TFEB and TFE3 translocation identifies novel chemical series modulating lysosome function” (Autophagy, 2022).
Where two headings read alike, the source gives them in different places.

Assays:
Settings in all cases: PKIS2 primary screening
[1] = system: SH-SY5Y cells; also: reference of the scale not given here
[2] = system: SH-SY5Y cells; assay: Nuclear count from microscopy images (cellular growth and toxicity); also: reference of the scale not given here
[3] = system: endogenous TFEB; assay: TFEB nuclear translocation, immunocytochemistry high-content imaging; type: cell-based
[4] = system: endogenous TFE3; assay: TFE3 nuclear translocation, immunocytochemistry high-content imaging; type: cell-based
[5] = system: SH-SY5Y cells; assay: AK (adenylate kinase) release ToxiLight cytotoxicity assay; also: reference of the scale not given here

Row | SMILES | DQ Intensity ([1]; DQ Red BSA intensity) | DQ Spot ([1]; DQ Red BSA spot count) | Nuclear Count [2] | TFEB % [3] [%] | TFE3 % [4] [%] | AK [5] | DQ Intensity [1] | DQ Spot [1]
1 | Nc1ncnc2scc(-c3ccc(NC(=O)Cc4cc(F)ccc4F)cc3)c12.O=C(O)C(F)(F)F [UNC10225107A] | 106.01 | 96.58 | 68.49 | 8.26 | 9.54 | 124.57 |  | 
2 | COc1cc(Nc2ccnc3ccc(C(F)(F)F)cc23)cc(OC)c1OC [UNC10225109A] | 93.31 | 111.66 | 107.71 | 5.89 | 7.95 | 98.24 |  | 
3 | CCn1c(-c2cccnc2O)nc2cnccc21 [UNC10225114A] |  |  | 103.96 | 10.78 | 9.51 | 77.22 | 101.68 | 98.93
4 | CS(=O)(=O)CCNCc1nc(-c2ccc3ncnc(Nc4ccc5c(cnn5Cc5ccccc5)c4)c3c2)cs1.Cl.Cl [UNC10225115A] | 104.52 | 112.81 | 105.59 | 3.62 | 17.35 | 99.64 |  | 
5 | Fc1ccc(-c2nn3cccc(F)c3c2-c2ccncc2)cc1 [UNC10225116A] | 138.45 | 107.80 | 80.47 | 9.32 | 11.01 | 96.78 |  | 
6 | NC(=O)Nc1sc(-c2ccc(F)cc2)cc1C(N)=O [UNC10225118A] |  |  | 81.29 | 7.01 | 11.46 | 76.60 | 77.43 | 92.26
7 | Cc1ccc(-c2cc(-c3c[nH]nc3-c3ccccn3)ccn2)cc1 [UNC10225125A] | 86.68 | 93.68 | 147.86 | 3.15 | 5.68 | 116.20 |  | 
8 | COc1ccc(COc2cc(-n3cnc4ccccc43)sc2C(N)=O)cc1 [UNC10225127A] |  |  | 109.00 | 4.73 | 11.50 | 69.30 | 119.47 | 107.75
9 | Cl.Oc1cc(-c2nc(-c3ccccc3)[nH]c2-c2ccncc2)ccc1Cl [UNC10225128B] | 96.34 | 92.51 | 80.05 | 6.45 | 11.76 | 91.39 |  | 
10 | O=c1cc(N2CCOCC2)nc2n(Cc3cccc(Cl)c3)ccn12 [UNC10225131A] |  |  | 104.22 | 5.81 | 11.28 | 96.90 | 103.05 | 113.71
11 | CCOC(=O)N1CCC(n2cnc(-c3ccc(F)cc3)c2-c2ccnc(N)n2)CC1 [UNC10225132A] |  |  | 129.88 | 10.30 | 8.29 | 115.58 | 90.15 | 96.37
12 | O=c1cc(N2CCOCC2)nc2n(Cc3cccc(Cl)c3Cl)c3ccccc3n12 [UNC10225136A] |  |  | 90.29 | 3.50 | 23.04 | 86.64 | 100.81 | 121.13
13 | FC(F)(F)c1ccc(-c2nn3ncccc3c2-c2ccnc(Nc3cccc(C(F)(F)F)c3)n2)cc1 [UNC10225138A] |  |  | 92.79 | 4.73 | 11.01 | 86.01 | 102.80 | 109.82
14 | CC(C)c1nc(-c2cccc(NS(=O)(=O)c3c(F)cccc3F)c2)c(-c2ccnc(Nc3ccc(N4CCOCC4)nc3)n2)s1.Cl [UNC10225142A] |  |  | 103.74 | 18.86 | 11.69 | 81.90 | 106.42 | 109.80
15 | Nc1nc(N)c2nc(-c3ccccc3)[nH]c2n1 [UNC10225149A] |  |  | 98.36 | 6.49 | 9.26 | 120.42 | 89.50 | 98.14
16 | Cc1ccc(NC(=O)c2ccc(Cl)c(Cl)c2)cc1-c1ccc(C(=O)Nc2ccncc2)cc1 [UNC10225151A] |  |  | 117.17 | 6.14 | 10.75 | 125.83 | 92.58 | 82.55
17 | COc1cc2ncn(-c3cc(OCc4sccc4Cl)c(C(N)=O)s3)c2cc1OC [UNC10225153A] |  |  | 49.58 | 9.72 | 30.18 | 134.16 | 186.81 | 134.42
